The results in this text go back to PMC12719775, “Alexidine is a TAZ-specific small-molecule inhibitor that suppresses breast cancer invasion and metastasis” (iScience, 2025).

Holding throughout (assay type): biochemical
Assay [1] has as its target T1, GST-TAZ / Venus-Flag-TEAD1 (VF-TEAD1) (Homo sapiens, UniProt Q9GZV5).
T1 construct: gene WWTR1; with Transcriptional enhancer factor TEF-1
The experiment in a line: GST pull-down with western blot densitometry. The following applies: HEK293T lysate, 18 h at 4 °C; protein-protein interaction inhibition. A general note: Immunoblotting shows a protein as a band on a membrane.

The next assay has as its target T2, TAZ (Homo sapiens, UniProt Q9GZV5).
T2 construct: gene WWTR1; endogenous full-length TAZ in HEK293T freeze-thaw lysate (Methods: endogenous)
In words: cellular thermal shift assay (CETSA) with western blot. To be noted: 100 μM alexidine, 4 h at 4 °C, HEK293T lysate, heated 25-60 °C; destabilising shift.

The target in assay [2] is T3, TAZ-TEAD biosensor (FLAG-SmBiT-TAZ / His-LgBiT-TEAD1) (Homo sapiens, UniProt Q9GZV5).
T3 construct: gene WWTR1; FLAG-SmBiT-TAZ aa 13-119 and His-LgBiT-TEAD1 aa 194-411 co-expressed in HEK293T; cell lysate; tags kept; with Transcriptional enhancer factor TEF-1
The experiment in a line: TR-FRET dose response (anti-FLAG-Tb / anti-His-D2), disruption of TAZ-TEAD1 interaction. To be noted: HEK293T lysate, 18 h; protein-protein interaction inhibition. Background: In TR-FRET formats the signal depends on donor and acceptor labels being close together.

T2 sequence (Q9GZV5 whole entry): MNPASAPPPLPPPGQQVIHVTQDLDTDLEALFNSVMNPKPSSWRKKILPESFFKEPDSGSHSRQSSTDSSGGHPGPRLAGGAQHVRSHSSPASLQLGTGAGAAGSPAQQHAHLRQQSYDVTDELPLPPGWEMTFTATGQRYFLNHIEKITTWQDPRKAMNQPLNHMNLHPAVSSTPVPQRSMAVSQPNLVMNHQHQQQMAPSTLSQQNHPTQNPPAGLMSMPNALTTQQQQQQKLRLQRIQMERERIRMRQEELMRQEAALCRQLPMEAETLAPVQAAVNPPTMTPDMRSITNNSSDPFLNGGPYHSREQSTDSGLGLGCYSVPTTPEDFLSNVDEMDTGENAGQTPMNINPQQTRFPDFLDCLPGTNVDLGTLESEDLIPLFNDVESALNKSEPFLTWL
T1 sequence (Q9GZV5 whole entry): as above
T1 sequence (P28347 whole entry partner): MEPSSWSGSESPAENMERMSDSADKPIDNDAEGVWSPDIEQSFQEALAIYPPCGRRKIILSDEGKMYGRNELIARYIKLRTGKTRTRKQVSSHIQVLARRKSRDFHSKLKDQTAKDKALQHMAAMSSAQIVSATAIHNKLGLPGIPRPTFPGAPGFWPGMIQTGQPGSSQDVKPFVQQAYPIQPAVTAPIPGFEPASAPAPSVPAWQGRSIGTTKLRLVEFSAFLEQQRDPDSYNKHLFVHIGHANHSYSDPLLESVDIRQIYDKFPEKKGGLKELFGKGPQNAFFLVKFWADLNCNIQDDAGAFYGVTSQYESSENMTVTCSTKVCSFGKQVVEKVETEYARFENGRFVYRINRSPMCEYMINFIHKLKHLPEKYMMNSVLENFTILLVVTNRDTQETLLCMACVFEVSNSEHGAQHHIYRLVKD
T3 sequence (Q9GZV5 13-119): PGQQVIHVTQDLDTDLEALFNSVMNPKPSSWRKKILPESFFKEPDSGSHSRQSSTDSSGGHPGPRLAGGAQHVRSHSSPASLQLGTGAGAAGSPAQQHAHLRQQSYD
T3 sequence (P28347 209-426 partner): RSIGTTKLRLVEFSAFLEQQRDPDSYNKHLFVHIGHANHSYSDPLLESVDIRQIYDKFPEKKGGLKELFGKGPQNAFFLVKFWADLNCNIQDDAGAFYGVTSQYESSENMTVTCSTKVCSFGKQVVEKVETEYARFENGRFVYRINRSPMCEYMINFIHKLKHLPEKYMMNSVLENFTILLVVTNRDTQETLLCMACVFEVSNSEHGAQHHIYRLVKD

Turning to `CCCCC(CC)CNC(=N)NC(=N)NCCCCCCNC(=N)NC(=N)NCC(CC)CCCC` (stereo not drawn) [alexidine], the “% PPI signal” value in assay [1] is “inhibition of GST-TAZ and VF-TEAD1 interaction was achieved by alexidine treatment”. At TAZ, the Tm entry is “A reduction in TAZ rather than TEAD stability and melting temperature (Tm) was observed”. In assay [2], the TR-FRET signal entry is given as “alexidine disrupted TAZ- TEAD PPI in a dose-dependent manner”.
